In patent US12630579B2, “Proteolysis targeting compound with tissue targeting capability and use thereof” (TAI BI DI PHARMACEUTICAL TECHNOLOGY (SHIJIAZHUANG) CO. LTD, priority 2020, dated 2026):
Values after ≈ are worked out from the molar mass of the structure shown.

How the values were obtained:
[1] = system: Liver cancer cells (HUH-7); assay: Transmembrane test; format: in vitro ADME; conditions: HUH-7, 24 hours, arithmetic mean over concentrations
Experimental: (§1) Liver cancer cells (HUH-7) were seeded in a 6-well plate at a concentration of 4*10^5 cells/mL, 2 mL per well, and cultured overnight until the cells were adherent to the wall.
The next day, compound solutions were prepared as follows: WG compounds of present application and corresponding compounds of structure A were respectively weighed, prepared with pure DMSO into mother solutions of high concentration, then gradiently diluted to obtain compound solutions of 10 uM/30 uM/100 uM/150 uM/300 uM in 10% DMSO, and shaken to mix well.
When the cells were adherent to the wall under microscope observation, 200 uL of compound solutions were added to each well with a ratio of compound solution to culture medium at 1:10.
After culture for 24 hours, the culture medium was sucked out with a pipette, and the wells were then washed five times with phosphate buffer, 2 mL each time for 30 seconds, to ensure there were no compound residues in the environment of the cells. Solutions in the wells were thoroughly sucked up, and 150 uL RIPA Lysis Buffer was added into each well. Then the culture was continued on ice for 30 min to lyse the cells. Lysates were collected and centrifuged at […] for 1 h, and supernatants were collected and characterized with HPLC to determine the concentration of the compounds therein.
The solubility and changes of transmembrane efficiency of WG compounds relative to corresponding compounds of structure A were analyzed and calculated. An arithmetic mean value of transmembrane efficiency changes under different concentrations was calculated, thereby obtaining a reference value of the difference of transmembrane efficiency between two groups of compounds.

[2] = Solubility test (equilibrium solubility in deionized water, HPLC); format: physicochemical; conditions: thermodynamic from solid, 37° C.
Experimental: Series solutions of 1 nM/10 nM/100 nM/100 nM/1 uM/10 uM/100 uM/1 mM were prepared according to following steps: WG compounds to be tested in the present application and corresponding compounds of structure A were respectively weighed, dissolved in deionized water, and oscillated at 37° C. for 12 hours to reach dissolution equilibrium. The resulted solutions were filtered 3 times with a filter membrane, and filtrates were collected. Actual concentrations of the compounds in the solutions were determined with HPLC. A curve of actual concentration of the solution—planned concentration of the solution was drawn, and the turning point of the curve indicated the equilibrium concentration of the compounds.

[3] = system: Liver cancer cells (HUH-7); assay: Cell growth inhibition test (cck-8); format: cell-based; conditions: HUH-7, 72 hours
Experimental: Liver cancer cells (HUH-7) were seeded in a 96-well plate at a concentration of 2*10^4 cells/mL, 100 uL per well, and cultured overnight.
The next day, the cells were observed microscope to ensure adherence. Compound solutions were prepared as follows: WG compounds of present application and corresponding compounds of structure A were respectively weighed, prepared with pure DMSO into mother solutions of high concentration, then gradiently diluted to obtain compound solutions of 10 nM/100 nM/300 nM/1000 nM/3000 nM in 10% DMSO, and shaken to mix well.
Positive drug solutions in the control group were prepared with the same solvent and method, and only a single dosage was required. In this test, the positive drug solution is 1 uM lenvatinib.
After solution preparation was completed, 10 uL of compound solutions were added into each well of the 96-well plate, three duplicates for each dosage. The plate was gently shaken to allow the cells to repeatedly contact with the compound solutions, and then the plate was placed in an incubator to culture for 72 hours. 72 hours later, the plate was taken out and 10 uL cck-8 reagent was added into each well and shaken gently to mix well. Then the plate was placed in an incubator to culture for two hours. Two hours later, the plate was taken out and analyzed with a microplate reader to measure the absorbance of each well at a wavelength of 450 nm.
A graph can be drawn according to the gradient of concentrations, and the results can be compared directly.

[4] = system: target protein in liver cancer cells (HUH-7); assay: Proteolysis test (Western blot of target protein); format: cell-based; set-up: key to Protein content (blackness of experimental group / blank control group): blot blackness of treated / blank control (fraction of control); conditions: HUH-7, 24 hours
Experimental: as §1
The next day, compound solutions were prepared as follows: WG compounds of present application and corresponding compounds of structure A were respectively weighed, prepared with pure DMSO into mother solutions of high concentration, then gradiently diluted to obtain compound solutions of 10 nM/30 nM/100 nM/300 nM/1000 nM/3000 nM in 10% DMSO, and shaken to mix well. 200 uL of compound solutions were added to each well with a ratio of compound solution to culture medium at 1:10.
After culture for 24 hours, the culture medium was sucked out with a pipette, and then the wells were washed 3 times with PBS. Solutions in the wells were thoroughly sucked up, and 150 uL RIPA Lysis Buffer was added into each well. Then the culture was continued on ice for 30 min to lyse the cells.
Lysates were collected and centrifuged at 16000 rpm for 10 minutes. Supernatants were collected and the total protein content was normalized with a BCA kit to determine target protein contents with Western blot.
The results were analyzed with ImageJ. Blackness of each strip was measured and the protein was quantified for comparison analysis according to formula: Protein content=blackness value of the experimental group/blackness value of the blank control group.

Structure (SMILES)	Transmembrane efficiency relative to corresponding compound of structure A (WGint4) [1]	solubility thermodynamic at 12 h [2] [µM]	IC50 [3] [nM]	DC50 [4] [nM]	Protein content (blackness of experimental group / blank control group) ([4]; dosage 1 nM)	Protein content (blackness of experimental group / blank control group) ([4]; dosage 10 nM)	Protein content (blackness of experimental group / blank control group) ([4]; dosage 30 nM)	Protein content (blackness of experimental group / blank control group) ([4]; dosage 100 nM)	Protein content (blackness of experimental group / blank control group) ([4]; dosage 300 nM)	solubility thermodynamic ([2]; 12 hours) [µM]	IC50 ([3]; Homo sapiens) [nM]
COc1cc2nccc(Oc3ccc(NC(=O)NC4CC4)c(Cl)c3)c2cc1C(=O)NCCCCCCC(=O)N[C@H](C(=O)N1C[C@H](OP(=O)(O)OCCCCCCCCCC(=O)NC(COCCC(=O)NCCCNC(=O)CCCCOC2OC(CO)C(O)C(O)C2NC(C)=O)(COCCC(=O)NCCCNC(=O)CCCCOC2OC(CO)C(O)C(O)C2NC(C)=O)COCCC(=O)NCCCNC(=O)CCCCOC2OC(CO)C(O)C(O)C2NC(C)=O)C[C@H]1C(=O)NCc1ccc(-c2scnc2C)cc1)C(C)(C)C (some centres unmarked) [WG-1 (00300639)]	about 9.2 times	677 (≈ 1770 µg/mL)	21.3	18	0.93	0.72	0.31	0.16	0.13	–	–
COc1cc2nccc(Oc3ccc(NC(=O)NC4CC4)c(Cl)c3)c2cc1C(=O)NCCCCCCC(=O)N[C@H](C(=O)N1C[C@H](OP(=O)(O)OCCCCCCCCCC(=O)NC(CNC(=O)CCCCCCOC2OC(CO)C(O)C(O)C2NC(C)=O)CNC(=O)CCCCCCOC2OC(CO)C(O)C(O)C2NC(C)=O)C[C@H]1C(=O)NCc1ccc(-c2scnc2C)cc1)C(C)(C)C (some centres unmarked) [WG-2(00300629)]	WG-2 is about 8.3 times	603 (≈ 1180 µg/mL)	29.5	21.4	–	–	–	–	–	–	–
CC(=O)N[C@H]1[C@H](OCCCCC(=O)NCCCNC(=O)CCOCC(COCCC(=O)NCCCNC(=O)CCCCO[C@@H]2O[C@H](CO)[C@H](O)[C@H](O)[C@H]2NC(C)=O)(COCCC(=O)NCCCNC(=O)CCCCO[C@@H]2O[C@H](CO)[C@H](O)[C@H](O)[C@H]2NC(C)=O)NC(=O)CCCCCCCCCOP(=O)(O)O[C@@H]2C[C@@H](C(=O)NCc3ccc(-c4scnc4C)cc3)N(C(=O)[C@@H](NC(=O)COCCOCCN(C)C(=O)c3cc(Oc4ccc(NC(=O)Nc5ccc(Cl)c(C(F)(F)F)c5)cc4)ccn3)C(C)(C)C)C2)O[C@H](CO)[C@H](O)[C@@H]1O [WG-3(00400639)]	WG-3 is about 15 times	–	79.9	81.4	–	–	–	–	–	255 (≈ 681 µg/mL)	–
COc1cc2c(Oc3ccc(NC(=O)C4(C(=O)Nc5ccc(F)cc5)CC4)cc3)ccnc2cc1OCCCOCCCOCCC(=O)N[C@H](C(=O)N1C[C@H](OP(=O)(O)OCCCCCCCCCC(=O)NC(COCCC(=O)NCCCNC(=O)CCCCOC2OC(CO)C(O)C(O)C2NC(C)=O)(COCCC(=O)NCCCNC(=O)CCCCOC2OC(CO)C(O)C(O)C2NC(C)=O)COCCC(=O)NCCCNC(=O)CCCCOC2OC(CO)C(O)C(O)C2NC(C)=O)C[C@H]1C(=O)NCc1ccc(-c2scnc2C)cc1)C(C)(C)C (some centres unmarked) [WG-4(00500639)]	WG-4 is about 17.1 times	476 (≈ 1300 µg/mL)	–	–	–	–	–	–	–	–	–
COc1cc2c(Oc3ccc(NC(=O)C4(C(=O)Nc5ccc(F)cc5)CC4)cc3F)ccnc2cc1OCCCOCCCOCCC(=O)N[C@H](C(=O)N1C[C@H](OP(=O)(O)OCCCCCCCCCC(=O)NC(COCCC(=O)NCCCNC(=O)CCCCOC2OC(CO)C(O)C(O)C2NC(C)=O)(COCCC(=O)NCCCNC(=O)CCCCOC2OC(CO)C(O)C(O)C2NC(C)=O)COCCC(=O)NCCCNC(=O)CCCCOC2OC(CO)C(O)C(O)C2NC(C)=O)C[C@H]1C(=O)NCc1ccc(-c2scnc2C)cc1)C(C)(C)C (some centres unmarked) [WG-5(00600639)]	WG-5 is about 11.5 times	731 (≈ 2010 µg/mL)	–	–	–	–	–	–	–	–	–
COc1cc2nccc(Oc3ccc(NC(=O)NC4CC4)c(Cl)c3)c2cc1C(=O)NCCCCCCC(=O)N[C@H](C(=O)N1C[C@H](O)C[C@H]1C(=O)NCc1ccc(-c2scnc2C)cc1)C(C)(C)C [WGint4 (003006)]	–	31 (≈ 30 µg/mL)	–	150	0.97	0.97	0.84	0.65	0.22	–	211
